US6403794B2, “Substituted 2-amino-4-alkylamino-1,3,5-triazines as herbicides” (Bayer Aktiengesellschaft, priority 1996, dated 2002)
Read-outs that look alike come from different tables or passages of the source.

What was measured:
Assay type in all cases: in vivo
Abutilon [1] = test: Post-emergence test; conditions: greenhouse, 1000 g of ai./ha, after three weeks
Description: (§1) Solvent: 5 parts by weight of acetone
(§2) Emulsifier: 1 part by weight of alkylaryl polyglycol ether
(§3) To produce a suitable preparation of active compound, 1 part by weight of active compound is mixed with the stated amount of solvent, the stated amount of emulsifier is added and the concentrate is diluted with water to the desired concentration.
(§4) Test plants which have a height of 5-15 cm are sprayed with the preparation of active compound such that the particular amounts of active compounds desired are applied per unit area. The concentration of the spray liquor is chosen so that the particular amounts of active compound desired are applied in 1000 l of water/ha.
(§5) After three weeks, the degree of damage to the plants is scored visually in % damage, in comparison to the untreated control.
(§6) 0%=no effect (like untreated control)

Alopecurus [2] = test: Post-emergence test; conditions: greenhouse, 1000 g of ai./ha, after three weeks
Description: as §1, §2, §3, §4, §5, §6

Amaranthus [3] = test: Post-emergence test; conditions: for pest or weed control at 1000 g/ha / pest or weed control at 500 g/ha: Amaranthus, 504 h, read-out: degree of damage to the plants (% damage), Amaranthus; for pest or weed control at 500 g/ha: 500 g of ai./ha
Description: as §1, §2, §3, §4, §5, §6

Avena fatua = test: Post-emergence test; conditions: greenhouse, 1000 g of ai./ha, after three weeks
Description: as §1, §2, §3, §4, §5, §6

Cyperus = test: Post-emergence test; conditions: greenhouse, 1000 g of ai./ha, after three weeks
Description: as §1, §2, §3, §4, §5, §6

Setaria [4] = test: Post-emergence test; conditions: for pest or weed control at 1000 g/ha / pest or weed control at 500 g/ha: Setaria, 504 h, read-out: degree of damage to the plants (% damage), Setaria; for pest or weed control at 500 g/ha: 500 g of ai./ha
Description: as §1, §2, §3, §4, §5, §6

Sinapis = test: Post-emergence test; conditions: greenhouse, 1000 g of ai./ha, after three weeks
Description: as §1, §2, §3, §4, §5, §6

Xanthium = test: Post-emergence test; conditions: greenhouse, 1000 g of ai./ha, after three weeks
Description: as §1, §2, §3, §4, §5, §6

weeds [5] = test: Post-emergence test
Description: as §1, §2, §3, §4, §5, §6

Echinochloa = test: Post-emergence test; conditions: greenhouse, 500 g of ai./ha, after three weeks
Description: as §1, §2, §3, §4, §5, §6

Ipomoea = test: Post-emergence test; conditions: greenhouse, 500 g of ai./ha, after three weeks
Description: as §1, §2, §3, §4, §5, §6

Polygonum = test: Post-emergence test; conditions: greenhouse, 500 g of ai./ha, after three weeks
Description: as §1, §2, §3, §4, §5, §6

Solanum = test: Post-emergence test; conditions: greenhouse, 500 g of ai./ha, after three weeks
Description: as §1, §2, §3, §4, §5, §6

Abutilon [6] = test: Pre-emergence test; conditions: for pest or weed control at 1000 g/ha: Abutilon, 504 h, read-out: degree of damage to the plants (% damage), Abutilon
Description: as §1, §2, §3
(§7) Seeds of the test plants are sown in normal soil. After about 24 hours, the soil is watered with the preparation of active compound. The amount of water per unit area is advantageously kept constant. The concentration of active compound in the preparation is immaterial, only the application rate of active compound per unit area matters.
(§8) After three weeks, the degree of damage to the plants is scored visually in % damage in comparison to the development of the untreated control.
as §6

Alopecurus [7] = test: Pre-emergence test; conditions: greenhouse, 1000 g of ai./ha, after three weeks
Description: as §1, §2, §3, §7, §8, §6

Amaranthus [8] = test: Pre-emergence test; conditions: for pest or weed control at 1000 g/ha: Amaranthus, 504 h, read-out: degree of damage to the plants (% damage), Amaranthus
Description: as §1, §2, §3, §7, §8, §6

Galium [9] = test: Pre-emergence test; conditions: greenhouse, 1000 g of ai./ha, after three weeks
Description: as §1, §2, §3, §7, §8, §6

weeds [10] = test: Pre-emergence test
Description: as §1, §2, §3, §7, §8, §6

Setaria [11] = test: Pre-emergence test; conditions: greenhouse, 1000 g of ai./ha, after three weeks
Description: as §1, §2, §3, §7, §8, §6

Galium [12] = test: Post-emergence test; conditions: greenhouse, 1000 g of ai./ha, after three weeks
Description: as §1, §2, §3, §4, §5, §6

Wheat = test: Post-emergence test; conditions: greenhouse, 500 g of ai./ha, after three weeks
Description: as §1, §2, §3, §4, §5, §6

[13] = greenhouse, 1000 g of ai./ha, after three weeks

Structure (SMILES)	degree of damage to the plants (% damage), Abutilon (Abutilon [1])	degree of damage to the plants (% damage), Alopecurus (Alopecurus [2])	degree of damage to the plants (% damage), Xanthium (Xanthium)	activity against weeds (weeds [5])	degree of damage to the plants (% damage), Alopecurus (Alopecurus [7])	degree of damage to the plants (% damage), Galium (Galium [9])	activity against weeds (weeds [10])	degree of damage to the plants (% damage), Galium (Galium [12])	further results
CCC(CCc1cccs1)Nc1nc(N)nc(C(C)F)n1 (stereo not drawn) [Example 23]	100%	90%	100%	strong activity	–	–	–	–	pest or weed control at 1000 g/ha (Amaranthus [3]; [13]): 100%; degree of damage to the plants (% damage), Avena fatua (Avena fatua): 100%; degree of damage to the plants (% damage), Cyperus (Cyperus): 100%; pest or weed control at 1000 g/ha (Setaria [4]; [13]): 100%; degree of damage to the plants (% damage), Sinapis (Sinapis): 100%
CCC(CCc1cccs1)Nc1nc(N)nc(C(C)(C)F)n1 (stereo not drawn) [Example 24]	–	–	–	strong activity	–	–	–	–	pest or weed control at 500 g/ha (Amaranthus [3]; greenhouse, after three weeks): 100%; degree of damage to the plants (% damage), Echinochloa (Echinochloa): 100%; degree of damage to the plants (% damage), Ipomoea (Ipomoea): 100%; degree of damage to the plants (% damage), Polygonum (Polygonum): 95%; pest or weed control at 500 g/ha (Setaria [4]; greenhouse, after three weeks): 80%; degree of damage to the plants (% damage), Solanum (Solanum): 95%
CC(C)C(CCc1ccc(Cl)cc1)Nc1nc(N)nc(C(C)(C)F)n1 (stereo not drawn) [Example 29]	–	–	–	–	70%	80%	strong activity	–	pest or weed control at 1000 g/ha (Abutilon [6]): 80%; pest or weed control at 1000 g/ha (Amaranthus [8]): 80%
CCC(CCc1ccccc1)Nc1nc(N)nc(C(F)(F)F)n1 (stereo not drawn) [Example 41]	100%	80%	100%	strong activity	90%	95%	strong activity	100%	pest or weed control at 1000 g/ha (Abutilon [6]; [13]): 100%; pest or weed control at 1000 g/ha (Amaranthus [8]; [13]): 100%; degree of damage to the plants (% damage), Setaria (Setaria [11]): 100%; pest or weed control at 1000 g/ha (Amaranthus [3]; [13]): 100%; pest or weed control at 1000 g/ha (Setaria [4]; [13]): 100%
CCC(CCc1ccccc1)Nc1nc(N)nc(C(F)(F)F)n1 (stereo not drawn) [Example 43]	100%	–	100%	strong activity	–	–	–	70%	pest or weed control at 500 g/ha (Amaranthus [3]; greenhouse, after three weeks): 100%; degree of damage to the plants (% damage), Amaranthus (Amaranthus [3]; [13]): 100%; degree of damage to the plants (% damage), Ipomoea (Ipomoea): 100%; degree of damage to the plants (% damage), Polygonum (Polygonum): 100%; pest or weed control at 500 g/ha (Setaria [4]; greenhouse, after three weeks): 90%; degree of damage to the plants (% damage), Setaria (Setaria [4]; [13]): 100%; degree of damage to the plants (% damage), Solanum (Solanum): 100%; degree of damage to the plants (% damage), Wheat (Wheat): 10%
CCC(COc1ccc(Cl)cc1)Nc1nc(N)nc(C(F)(F)F)n1 (stereo not drawn) [Example 44]	100%	80%	100%	strong activity	–	–	–	80%	pest or weed control at 1000 g/ha (Amaranthus [3]): 100%; pest or weed control at 1000 g/ha (Setaria [4]): 100%
CCC(CCc1ccccc1)Nc1nc(N)nc(C(F)(F)F)n1 (stereo not drawn) [Example 45]	100%	80%	80%	strong activity	80%	100%	strong activity	100%	degree of damage to the plants (% damage), Abutilon (Abutilon [6]; [13]): 100%; degree of damage to the plants (% damage), Amaranthus (Amaranthus [8]; [13]): 100%; degree of damage to the plants (% damage), Setaria (Setaria [11]): 95%; degree of damage to the plants (% damage), Amaranthus (Amaranthus [3]; [13]): 100%; degree of damage to the plants (% damage), Setaria (Setaria [4]; [13]): 100%
